Experimental data as given in US20250288704A1, “CXCR4-LIGANDS FOR DIAGNOSTIC AND THERAPEUTIC USE AND PRECURSORS THEREOF” (priority 2021, published 2025).
Read-outs that look alike come from different tables or passages of the source. Starred links: 1 amine or outer side, 2 acyl side, 3 side chain; linkers in the order of their positions; H or OH if unused. Positions of bridges follow the written chain, without caps; N, C: chain ends. Non-standard residues stand in square brackets, D forms with d. Residues, ends and D or L forms follow the SMILES beside them. Groups on a side chain read outwards from the residue. Chains are numbered I, II in the order given. *: point of attachment. X6 = CN1/C(=C/C=C/C=C/C2=[N+](CCCCCC(=O)*)c3ccc(S(=O)(=O)[O-])cc3C2(C)C)C(C)(C)c2cc(S(=O)(=O)O)ccc21; X7 = O=C(O)CN1CCN(CC(=O)O)CCN([C@H](CCC(=O)*)C(=O)O)CCN(CC(=O)O)CC1; Benzoyl(4-SiFtBu2) = CC(C)(C)[Si](F)(c1ccc(C(=O)*)cc1)C(C)(C)C; DOTA = O=C(O)CN1CCN(CC(=O)O)CCN(CC(=O)*)CCN(CC(=O)O)CC1; d(γGlu) = O=C(O)[C@@H](CCC(=O)[*:2])N[*:1]; Tyr(3-I) = N[C@@H](Cc1ccc(O)c(I)c1)C(=O)O; 2Nal = N[C@@H](Cc1ccc2ccccc2c1)C(=O)O; d2Nal = N[C@H](Cc1ccc2ccccc2c1)C(=O)O; dNMeOrn = CN[C@H](CCCN)C(=O)O; 4Amb = NCc1ccc(C(=O)O)cc1; 4Abz = Nc1ccc(C(=O)O)cc1; dDap = NC[C@@H](N)C(=O)O; CO = O=C([*:1])[*:2]; Ahx = NCCCCCC(=O)O

How the values were obtained:
[1] = test system: CXCR4-expressing Chem_1 cells; assay: Determination of internalization, dual tracer with 125I-Fc-131; assay type: cell-based; settings: for Cell-bound [%] / Internalized [%]: of total cellular activity
How it was run: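 Receptor blockade used AMD3100 (1 mM stock) versus medium-treated wells, triplicate per time point, in Chem_1 cells cultured at 37 °C in DMEM-F12/10% FBS. Activity of supernatant, surface-bound and internalized (1 M NaOH) fractions measured by γ-counter, corrected for non-specific uptake and normalised to standard ligand.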

[2] = Octanol/PBS partition coefficient (logD7.4); assay type: physicochemical; settings: n-octanol/PBS pH 7.4, radiolabeled compound
Procedure: The tubes were vortexed at maximum speed for 3 min to ensure equilibrium before centrifugation at 15.000×g for 5 min on a Biofuge 15 from Heraeus Holding GmbH (Osterode, Germany). An aliquot of 100 μL of each fraction was measured in the γ-counter and the log D7.4 calculated as follows: […]

CXCR4 = CXCR4 (Homo sapiens, UniProt P61073); assay: Determination of IC50: competition with 125I-Fc-131 on CXCR4-positive Jurkat cells; assay type: binding; parameters: CXCR4-positive Jurkat T lymphocyte cells were grown in Gibco's RPMI 1640 GlutaMAX medium; endogenous in cells; host or cells: Jurkat T lymphocyte cells (whole cells in suspension, 400.000 per tube);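 note: test compound at 10^−5 to 10^−11 M competed for 2 h at 8 °C with the radioligand on 400,000 cells per well, bound versus free activity measured by γ-counting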
[3] = Biodistribution in Jurkat tumor-bearing CB-17 SCID mice; assay type: in vivo; settings: female, CB-17 SCID, mouse, in vivo, iv, total radioactivity, 1 h p.i., Jurkat xenograft, CB-17 SCID female mice
Procedure: All animal experiments were conducted in accordance with general animal welfare regulations in Germany and the institutional guidelines for the care and use of animals. To establish tumor xenografts, Jurkat cells (2-3×10^7 cells) were suspended in a mixture of Gibco's RPMI 1640 medium and Matrigel (1/1; v/v) from BD Biosciences (Heidelberg, Germany), and inoculated subcutaneously onto the right shoulder of 6-10 weeks old CB17-SCID mice from either Charles River GmbH (Sulzfeld, Germany) or the in-house mouse breeding facility. Mice were used when tumors had grown to a diameter of 5-8 mm (4-10 weeks after inoculation).
Approximately 0.5-20 MBq (0.02-0.20 nmol) of the ^125I-, ^177Lu-, ^99mTc-, ^18F- or ^68Ga-labeled ligand were injected into the tail vein of Jurkat tumor-bearing CB-17 SCID mice and the animals sacrificed after the respective biodistribution time. Selected organs were removed, weighted and measured in a γ-counter.

[4] = unlabeled or cold (natGa/natLu) compound vs 125I-Fc-131, Jurkat cells

Chain of CXCR4 (P61073 whole entry): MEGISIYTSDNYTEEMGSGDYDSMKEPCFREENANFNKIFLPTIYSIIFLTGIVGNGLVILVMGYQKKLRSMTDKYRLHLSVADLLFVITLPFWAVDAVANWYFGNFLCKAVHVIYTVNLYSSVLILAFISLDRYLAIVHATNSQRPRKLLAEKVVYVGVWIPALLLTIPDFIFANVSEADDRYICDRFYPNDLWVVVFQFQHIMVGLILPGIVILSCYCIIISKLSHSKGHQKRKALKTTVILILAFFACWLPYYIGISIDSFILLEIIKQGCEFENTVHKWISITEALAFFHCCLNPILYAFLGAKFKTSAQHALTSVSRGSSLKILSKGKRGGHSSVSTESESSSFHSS

Compound: C[C@@H](NC(=O)[C@@H](CCCNC(=N)N)NC(=O)[C@@H](CN)NC(=O)CN1CCN(CC(=O)O)CCN(CC(=O)O)CCN(CC(=O)O)CC1)C(=O)NCc1ccc(C(=O)NCCC[C@@H]2C(=O)N[C@@H](CCCNC(=N)N)C(=O)N[C@@H](Cc3ccc4ccccc4c3)C(=O)NCC(=O)N[C@H](Cc3ccc(O)cc3)C(=O)N2C)cc1 [CXCR4-DOTA-1 [Lu]] (cyclo([dY][dNMeOrn]([4Amb-dA-dR-dDap-DOTA])R[2Nal]G))
- Internalized in relation to 125I-Fc-131 [%] ([1]; 15 min): 78.3 ± 6.93%
- Cell-bound [%] ([1]; 15 min): 4.27 ± 0.38%
- Internalized [%] ([1]; 15 min): 2.61 ± 0.20%
- Internalized in relation to 125I-Fc-131 [%] ([1]; 30 min): 95.0 ± 9.39%
- Cell-bound [%] ([1]; 30 min): 4.43 ± 0.08%
- Internalized [%] ([1]; 30 min): 3.28 ± 0.27%
- Internalized in relation to 125I-Fc-131 [%] ([1]; 60 min): 109 ± 24.6%
- Cell-bound [%] ([1]; 60 min): 6.02 ± 0.67%
- Internalized [%] ([1]; 60 min): 5.04 ± 0.92%
- Internalized in relation to 125I-Fc-131 [%] ([1]; 120 min): 133 ± 7.31%
- Internalization [% Fc-131] 2 h ([1]; 2 h, 177Lu-labeled): 133 % Fc-131
- Cell-bound [%] ([1]; 120 min): 4.97 ± 0.31%
- Internalized [%] ([1]; 120 min): 7.08 ± 0.22%
- logD7.4 [2]: −3.41 ± 0.05 (6)
- IC50 (CXCR4; unlabeled or cold (natGa/natLu) compound vs 125I-Fc-131, Jurkat cells, read-out: IC50): 5.05 ± 1.75 nM

Compound: C[C@@H](NC(=O)[C@@H](CCCNC(=N)N)NC(=O)[C@@H](CN)NC(=O)CCCCC[N+]1=C(/C=C/C=C/C=C2/N(C)c3ccc(S(=O)(=O)O)cc3C2(C)C)C(C)(C)c2cc(S(=O)(=O)[O-])ccc21)C(=O)Nc1ccc(C(=O)NCCC[C@@H]2C(=O)N[C@@H](CCCNC(=N)N)C(=O)N[C@H](Cc3ccc4ccccc4c3)C(=O)NCC(=O)N[C@@H](Cc3ccc(O)c(I)c3)C(=O)N2C)cc1 [CXCR4-OI-2] (cyclo([Tyr(3-I)][dNMeOrn]([4Abz-dA-dR-dDap-X6])R[d2Nal]G))
- logD7.4 [2]: −1.83 ± 0.02 (5)
- IC50 (CXCR4; [4]): 10.2 ± 3.95 nM
- tissue uptake at 1 h ([3]; Blood, read-out: % iD/g Blood): 1.73 %ID/g
- tissue uptake at 1 h ([3]; Bone, read-out: % iD/g Bone): 1.2 %ID/g
- tissue uptake at 1 h ([3]; Heart, read-out: % iD/g Heart): 1.84 %ID/g
- tissue uptake at 1 h ([3]; Intestine, read-out: % iD/g Intestine): 1.88 %ID/g
- tissue uptake at 1 h ([3]; Kidney, read-out: % iD/g Kidney): 13.9 %ID/g
- tissue uptake at 1 h ([3]; Liver, read-out: % iD/g Liver): 35.3 %ID/g
- tissue uptake at 1 h ([3]; Lung, read-out: % iD/g Lung): 5.54 %ID/g
- tissue uptake at 1 h ([3]; Muscle, read-out: % iD/g Muscle): 0.41 %ID/g
- tissue uptake at 1 h ([3]; Pancreas, read-out: % iD/g Pancreas): 1.1 %ID/g
- tissue uptake at 1 h ([3]; Spleen, read-out: % iD/g Spleen): 16.1 %ID/g
- tissue uptake at 1 h ([3]; Stomach, read-out: % iD/g Stomach): 4.01 %ID/g
- tissue uptake at 1 h ([3]; Thyroid, read-out: % iD/g Thyroid): 1.46 %ID/g
- tissue uptake at 1 h ([3]; Tumor, read-out: % iD/g Tumor): 1.1 %ID/g

Compound: C[C@@H](NC(=O)[C@@H](CCCNC(=N)N)NC(=O)[C@@H](CN)NC(=O)CCCCCNC(=O)[C@@H](CNC(=O)CC[C@H](C(=O)O)N1CCN(CC(=O)O)CCN(CC(=O)O)CCN(CC(=O)O)CC1)NC(=O)[C@@H](CNC(=O)c1ccc([Si](F)(C(C)(C)C)C(C)(C)C)cc1)NC(=O)CC[C@@H](NC(=O)N[C@H](CCC(=O)O)C(=O)O)C(=O)O)C(=O)Nc1ccc(C(=O)NCCC[C@@H]2C(=O)N[C@@H](CCCNC(=N)N)C(=O)N[C@@H](Cc3ccc4ccccc4c3)C(=O)NCC(=O)N[C@H](Cc3ccc(O)cc3)C(=O)N2C)cc1 [CXCR4-SiFA-5 [Ga]] (I: {dE-CO-d(γGlu)}-[dDap](Benzoyl(4-SiFtBu2))[dDap](X7)[Ahx][dDap][dR][dA][4Abz] / II: cyclo([dY][dNMeOrn]R[2Nal]G); amide I:C-II:2)
- Internalized in relation to 125I-Fc-131 [%] ([1]; 30 min): 233 ± 44.1%
- Cell-bound [%] ([1]; 30 min): 0.66 ± 0.22%
- Internalized [%] ([1]; 30 min): 3.46 ± 0.57%
- Internalization [% Fc-131] ([1]; 90 min): 209 % Fc-131
- Internalized in relation to 125I-Fc-131 [%] ([1]; 90 min): 209 ± 27.2%
- Cell-bound [%] ([1]; 90 min): 0.72 ± 0.34%
- Internalized [%] ([1]; 90 min): 3.70 ± 0.41%
- logD7.4 [2]: −1.85 ± 0.07 (7)
- IC50 (CXCR4; [4]): 36.5 ± 4.51 nM

Compound: CC[C@H](C)[C@@H]([C@@H](CC(=O)N1CCC[C@H]1[C@H](OC)[C@@H](C)C(=O)N[C@H](C)[C@@H](O)c1ccccc1)OC)N(C)C(=O)[C@@H](NC(=O)[C@H](C(C)C)N(C)C(=O)OCc1ccc(NC(=O)[C@H](CCCNC(N)=O)NC(=O)[C@@H](NC(=O)CCCCCN2C(=O)CC(SCC[C@@H](N)C(=O)N[C@H](Cc3c[nH]cn3)C(=O)N[C@H](CCCNC(=N)N)C(=O)N[C@H](C)C(=O)Nc3ccc(C(=O)NCCC[C@@H]4C(=O)N[C@@H](CCCNC(=N)N)C(=O)N[C@@H](Cc5ccc6ccccc6c5)C(=O)NCC(=O)N[C@H](Cc5ccc(O)cc5)C(=O)N4C)cc3)C2=O)C(C)C)cc1)C(C)C (stereo partly drawn) [CXCR4-MMAE-3]
- Internalization 2 h [% of bound peptide] ([1]; 2 h, 125I-labeled): 24.9 ± 0.85 % of bound peptide
- logD7.4 [2]: 0.80 ± 0.12 (6)
- IC50 (CXCR4): 43.9 ± 6.18 nM

Compound: C[C@@H](NC(=O)[C@@H](CCCNC(=N)N)NC(=O)[C@@H](CN)NC(=O)CCCCCNC(=O)[C@@H](CNC(=O)CC[C@H](C(=O)O)N1CCN(CC(=O)O)CCN(CC(=O)O)CCN(CC(=O)O)CC1)NC(=O)C[N+](C)(C)Cc1ccc([Si](F)(C(C)(C)C)C(C)(C)C)cc1)C(=O)Nc1ccc(C(=O)NCCC[C@@H]2C(=O)N[C@@H](CCCNC(=N)N)C(=O)N[C@@H](Cc3ccc4ccccc4c3)C(=O)NCC(=O)N[C@H](Cc3ccc(O)cc3)C(=O)N2C)cc1 [CXCR4-SiFA-6 [Ga]]
- Internalized in relation to 125I-Fc-131 [%] ([1]; 30 min): 829 ± 48.1%
- Cell-bound [%] ([1]; 30 min): 0 ± 0.29%
- Internalized [%] ([1]; 30 min): 37.0 ± 1.06%
- Internalization [% Fc-131] ([1]; 90 min): 980 % Fc-131
- Internalized in relation to 125I-Fc-131 [%] ([1]; 90 min): 980 ± 85.6%
- Cell-bound [%] ([1]; 90 min): 0.81 ± 0.14%
- Internalized [%] ([1]; 90 min): 48.1 ± 1.26%
- logD7.4 [2]: −1.05 ± 0.06 (8)
- IC50 (CXCR4; [4]): 5.52 ± 0.71 nM
